# Assay results: US20070112025A1, “Use of kynurenine-3-hydroxylase inhibitors for the preparation of medicaments for the treatment of l-dopa induced movement disorders, dyskinesias, drug addiction, pain and cataract” (priority 2003, published 2007)
# Columns and labels:
# [1] = tested on: glutamate release; details: KYNA 30-100 nM; without modifying ionotropic or metabotropic GLU receptor function; cited from earlier work
# [2] = tested on: 6-OHDA lesioned rats; assay: Rotational response to chronic L-DOPA in 6-OHDA lesioned rats (wearing-off model); format: in vivo, rat
# Method: In 6-OHDA lesioned rats, a commonly used model of PD, motor response to L-DOPA decreases after chronic treatment. This effect mimics the “wearing-off” phenomenon observed in parkinsonian patients under chronic treatment with L-DOPA (Boldry et al., Brain Res 1995 Sep. 18; 692: 259-64).
# In this rat model we evaluated the effect of Ro-618048 (40 mg/kg; ip) and of 2-(3,4-Dichloro-benzoyl)-cyclopropanecarboxylic acid (UPF-648, 50 mg/kg; ip), on the rotational response to chronic L-DOPA (28 days treatment, […]; ip) in comparison to MK-801 (0.1 mg/kg; ip). […]
# To measure rotational behavior, rats were placed in circular cages and tethered to an automated rotometer. The number of complete turns performed in each 5-min period was recorded by a computer. […]
# Rats were injected intraperitoneally twice a day at 8:00 and 16:00 for 28 consecutive days with either a combination of L-DOPA methylester (50 mg/kg) and the peripheral decarboxylase inhibitor benserazide (12.5 mg/kg) or saline. […] The duration of the response was measured by the time between the first 5 min interval when the rate of turning attained half its eventual average value and the first interval when the rate again declined to half its average values.
# Data were analyzed by analysis of variance followed by Duncan's new multiple range test for post-hoc comparisons.
# [3] = tested on: MTPP treated monkeys; details: NMDA antagonist in MTPP treated monkeys; cited from earlier work
# [4] = tested on: MPTP-treated cynomolgus (macaca fascicularis) monkeys; assay: L-DOPA induced dyskinesia model in parkinsonian monkeys; format: in vivo, cynomolgus monkey
# Method: The studies were performed in five to six female MPTP-treated cynomolgus (macaca fascicularis) monkeys (weighing 2.9 to 5.0 kg) with a stable parkinsonian syndrome and reproducible dyskinesias to L-Dopa. The animals were handled in accordance with the National Institute of Health Guide for the Care and Use of Laboratory Animals and all procedures were approved by the Institutional Animal Care Committee of Laval University. They were housed separately in observation cages and exposed to a 12 hour light/dark cycle (lights on 6.0 a.m.-6.0 p.m.) in a temperature controlled room, 23±1° C. They were fed once daily in the afternoon with pellets and fruits, and had free access to water.
# RO-618048 was administered alone and simultaneously with L-Dopa. In particular: • A) RO-618048 at increasing doses, 10, 30, 100 mg/kg was administered alone on three consecutive days and compared with vehicle administered before and after treatments. • B) RO-618048 at increasing doses, 10, 30, 100 mg/kg was given simultaneously with L-Dopa/benserazide on three consecutive days and compared with L-Dopa, which was also given on three consecutive days. During the interval between the treatments, to maintain priming, the animals received an oral treatment with L-Dopa/benserazide (100/25 mg; Prolopa.). Compounds
# RO-618048 at increasing doses, 10, 30, 100 mg/kg was suspended in 0.1% (vol/vol) Tween 80/sterile water and homogenized in a glass homogeniser and mixed overnight until administration, as a homogeneous suspension. The maximum volume of drug suspension administered by oral gavage (p.o) at each increasing dose was 10, 20 and 40 ml respectively. As a control, a suspension of 0.1% (vol/vol) Tween 80/sterile water was administered p.o. (2 ml/kg). L-Dopa methyl ester (Sigma, St. Louis, Mo.); always together with benserazide 50 mg, (Hoffmann-La Roche, Montreal, Quebec), at doses ranging between 25 to 30 mg/kg (based on the threshold concentration for each animal) was dissolved in 1 ml of 0.9% sterile saline and administered s.c. alone or in combination with RO-618048.
# The severity of dyskinesias was rated for the face, neck, trunk, arms and legs in the following way: None=0; Mild=1; Moderate=2; Severe=3, based on the assessment of the amplitude, interference with normal motor activity and the frequency of the abnormal movements, according to a scale which we have used in several published studies. The dyskinetic score obtained was the sum of the scores for all body segments for a maximal score of 21 points. The mean dyskinetic score for each animal has been calculated as the average of all the scores obtained for 3 hours or for the total duration of the effect of the drugs.
# The mean Parkinsonian scores and also the mean dyskinetic scores obtained for each monkey, during 3 hours or the total duration of the effect of a given drug, were analysed using the nonparametric Friedman's test followed by multiple comparisons based on Friedman rank sums.
# [5] = tested on: Male Wistar rats; assay: Cocaine-induced behavioral sensitization (locomotor activity); format: in vivo, rat
# Method: We evaluated the effect of Ro-618048 (40 mg/kg; ip) and of 2-(3,4-Dichloro-benzoyl)-cyclopropanecarboxylic acid (UPF-648, 50 mg/kg; ip) in a model of cocaine-induced behavioral sensitization in rat.
# Male Wistar rats (Charles River, Kingston, N.Y.) weighing 200-250 g upon arrival were used. Locomotor activity was measured in sixteen identical metal wire hanging cages each measuring 36 cm (L)×25 cm (W)×20 cm (H). Each cage contained two sets of infrared emitter-detector photocells positioned along the long axis 1-cm above the grid floor and 8 cm from the front and back of the cage. Background noise was provided by a white noise generator. Movement within the cages produced photocell interruptions, which were automatically recorded by an IBM-compatible computer.
# Animals were habituated to the locomotor activity chambers for 2-3 consecutive days before the experiment. Rats received 5 daily IP injections of cocaine (15 mg/kg) or saline and either the Kyn-3OHase inhibitor Ro-618048 (40 mg/kg ip) or its vehicle and locomotor activity was recorded for 3 hours. Ten days after the last injection of cocaine or saline (day 15), the animals were challenged with 15 mg/kg of cocaine in absence of Ro-618048 and locomotor activity was again monitored for 3 h. […]
# [6] = tested on: Crl:CD-1 mice; assay: Mice formalin test; format: in vivo, mouse; details: 40 mg/kg ip 15 min before formalin, p<0.05
# Method: (§1) We evaluated the analgesic activity of Ro-618048 (40 mg/kg; ip) and of 2-(3,4-Dichloro-benzoyl)-cyclopropanecarboxylic acid (UPF-648, 50 mg/kg; ip) in animal models of inflammatory and neuropathic pain (formalin test in mice) as well as in acute pain test (tail flick in rats).
# (§2) Adult male Wistar rats weighing 175-200 g, and Crl:CD-1 mice weighing 22-25 g at testing were used (Harlan-Nossan, Italy).
# The formalin test in mouse is a procedure used to model neurogenic inflammation and continuous pain (Shibata et al., 1989, Pain 38: 347-352) as well as some features of post-injury pain in man (Dallel et al., 1995, Pain. 61: 11-16).
# According to a modified protocol from Rosland et al., (1990, Pain 42: 235-242) mice were injected subcutaneously (s.c.) with 20 μl of 2.7% solution of formalin into the plantar surface of left hindpaw and placed immediately into clear PVC observation chambers (23×12×13 cm). Pain behavior was quantified by counting the cumulative licking time (sec) of the injected paw. Measurements were taken during the early phase (0-5 min) and late phase (30-40 min) after formalin injection (Tjolsen et al., 1992, Pain 51: 5-17). […]
# Mice Formalin test. […] Data were evaluated by analysis of variance followed by Dunnett's t-test.
# The cumulative licking time (sec) of the injected paw was recorded during the early phase (0-5 min) and late phase (30-40 min) after formalin injection.
# [7] = tested on: Wistar rats; assay: Tail flick test; format: in vivo, rat; details: 40 mg/kg ip, 90 min after administration; control 3.9±0.4 sec
# Method: as §1, §2
# The tail flick test measures the thermal nociceptive threshold defined as the latency required to elicit a tail response to heat. The test was performed according to the method described by D'Amour and Smith (1941, J. Pharmacol. Exp. Ther. 72:74-79) using an analgesiometer (U. Basile, Italy). Rats were treated ip with the drug (Ro-618048 40 mg/kg) or vehicle and 90 min after, each animal was placed on a platform and the tail was exposed to a focused beam of radiant heat approximately 3 cm from the tip. The beam light intensity was adjusted to produce a reaction latency of 3-5 sec in control rats. The thermal nociceptive threshold was defined as the latency required to elicit a tail response. A 20 sec cut-off was used to prevent tissue damage.
# Tail Flick Test. The latency was defined as the interval of time (sec) between the onset of the thermal stimulus and the flick of the tail. Data were evaluated by analysis of variance followed by Dunnett's t-test.
# [8] = tested on: lens; assay: In vivo model of cataract (chronic naphtalene treatment)
# Method: (§3) We evaluated the effect of a treatment with inhibitors of Kyn-3OHase (Ro-618048) and of 2-(3,4-Dichloro-benzoyl)-cyclopropanecarboxylic acid (UPF-648, 50 mg/kg; ip) in an in vivo (chronic naphtalene treatment) and an in vitro models of cataract (culture lenses exposed to different insults).
# [9] = tested on: culture lenses; assay: In vitro models of cataract (culture lenses exposed to different insults)
# Method: as §3
# [10] = RO-618048 alone 10, 30, 100 mg/kg p.o., compared with vehicle
compound,measurement,setting,value
"O=C(O)c1cc(=O)c2ccccc2[nH]1 [KYNA, kynurenic acid]",glutamate release,[1],strongly inhibits glutamate release
C[C@]12N[C@H](Cc3ccccc31)c1ccccc12 [MK801],decreased rotational response to L-DOPA (duration),"[2]; MK801 0.1 mg/kg ip, 29th day after 28 days L-DOPA",similar
same,L-DOPA induced dyskinesia,[3],reduced L-DOPA induced dyskinesia
COc1ccc(S(=O)(=O)Nc2nc(-c3cccc([N+](=O)[O-])c3)cs2)cc1OC [Ro-618048],decreased rotational response to L-DOPA (duration),"[2]; Ro-618048 40 mg/kg ip, acute co-administration on 29th day after 28 days L-DOPA",reversed
same,reduction of dyskinetic response to L-Dopa,[4]; 30 mg/kg p.o. simultaneously with L-Dopa/benserazide (25 to 30 mg/kg),about 20%
same,reduction of dyskinetic response to L-Dopa,[4]; 100 mg/kg p.o. simultaneously with L-Dopa/benserazide (25 to 30 mg/kg),about 20%
same,Parkinsonian score,[4]; [10],did not have any effect
same,locomotor activity,[4]; [10],did not have any effect
same,effect on improvement of parkinsonism induced by L-Dopa,[4]; acute RO-618048 with L-Dopa,without any negative effect
same,"increase of locomotor response to cocaine, fifth day vs first day","[5]; Ro-618048 40 mg/kg IP with cocaine 15 mg/kg daily for 5 days, vehicle 20% higher",did not show any significant increase
same,increased locomotor activity response to cocaine challenge vs first day,"[5]; challenge cocaine 15 mg/kg ten days after last injection, without Ro-618048, pretreated 40 mg/kg IP, vehicle 30% higher",did not
same,"cumulative licking time, early phase (0-5 min)",[6]; control 106±4.39 sec,75 ± 5.5 s
same,"cumulative licking time, late phase (30-40 min)",[6]; control 123±12.8 sec,68 ± 14.3 s
same,tail flick response latency to noxious heat,[7],6.1 ± 0.4 s
same,degree of opacification of the lens,[8],reduce the degree of opacification of the lens
same,degree of opacification of the lens,[9],reduce the degree of opacification of the lens
"O=C(O)C1CC1C(=O)c1ccc(Cl)c(Cl)c1 (stereo not drawn) [UPF-648, 2-(3,4-Dichloro-benzoyl)-cyclopropanecarboxylic acid]",degree of opacification of the lens,[8],reduce the degree of opacification of the lens
same,degree of opacification of the lens,[9],reduce the degree of opacification of the lens
